Assay: xn = mol fraction of the nth substance listed
Settings: Liquid; for mass density: 101.3 kPa; for viscosity: 101 kPa

CN(C)CCO [2-(N,N-dimethylamino)ethanol] + O
Settings | mass density [kg/m3] | viscosity [mPa·s]
293.15 K, x1 = 0.0121 | 996.588 | –
293.15 K, x1 = 0.0218 | 995.236 | –
293.15 K, x1 = 0.0252 | 994.947 | –
293.15 K, x1 = 0.0359 | 994.033 | –
293.15 K, x1 = 0.0617 | 992.027 | –
293.15 K, x1 = 0.1009 | 988.909 | –
293.15 K, x1 = 0.2017 | 973.822 | –
293.15 K, x1 = 0.3033 | 956.823 | –
293.15 K, x1 = 0.4051 | 941.071 | –
293.15 K, x1 = 0.5077 | 927.808 | –
293.15 K, x1 = 0.6099 | 916.51 | –
293.15 K, x1 = 0.7652 | 903.034 | –
293.15 K, x1 = 0.895 | 894.185 | –
293.15 K, x1 = 1 | 887.816 | –
298.15 K, x1 = 0.0121 | 995.282 | –
298.15 K, x1 = 0.0218 | 993.748 | –
298.15 K, x1 = 0.0252 | 993.401 | –
298.15 K, x1 = 0.0359 | 992.24 | –
298.15 K, x1 = 0.0617 | 989.74 | –
298.15 K, x1 = 0.1009 | 985.747 | –
298.15 K, x1 = 0.2017 | 969.911 | –
298.15 K, x1 = 0.3033 | 952.768 | –
298.15 K, x1 = 0.4051 | 936.991 | –
298.15 K, x1 = 0.5077 | 923.722 | –
298.15 K, x1 = 0.6099 | 912.41 | –
298.15 K, x1 = 0.7652 | 898.903 | –
298.15 K, x1 = 0.895 | 889.991 | –
298.15 K, x1 = 1 | 883.578 | –
303.15 K, x1 = 0.0121 | 993.747 | –
303.15 K, x1 = 0.0218 | 992.024 | –
303.15 K, x1 = 0.0252 | 991.591 | –
303.15 K, x1 = 0.0359 | 990.239 | –
303.15 K, x1 = 0.0617 | 987.103 | –
303.15 K, x1 = 0.1009 | 982.49 | –
303.15 K, x1 = 0.2017 | 965.929 | –
303.15 K, x1 = 0.3033 | 948.646 | –
303.15 K, x1 = 0.4051 | 932.844 | –
303.15 K, x1 = 0.5077 | 919.567 | –
303.15 K, x1 = 0.6099 | 908.259 | –
303.15 K, x1 = 0.7652 | 894.723 | –
303.15 K, x1 = 0.895 | 885.767 | –
303.15 K, x1 = 1 | 879.315 | –
308.15 K, x1 = 0.0121 | 991.994 | –
308.15 K, x1 = 0.0218 | 990.035 | –
308.15 K, x1 = 0.0252 | 989.243 | –
308.15 K, x1 = 0.0359 | 988.048 | –
308.15 K, x1 = 0.0617 | 984.421 | –
308.15 K, x1 = 0.1009 | 979.144 | –
308.15 K, x1 = 0.2017 | 961.896 | –
308.15 K, x1 = 0.3033 | 944.47 | –
308.15 K, x1 = 0.4051 | 928.641 | –
308.15 K, x1 = 0.5077 | 915.367 | –
308.15 K, x1 = 0.6099 | 904.055 | –
308.15 K, x1 = 0.7652 | 890.503 | –
308.15 K, x1 = 0.895 | 881.507 | –
308.15 K, x1 = 1 | 875.017 | –
313.15 K, x1 = 0.0121 | 989.83 | –
313.15 K, x1 = 0.0218 | 987.566 | –
313.15 K, x1 = 0.0252 | 986.624 | –
313.15 K, x1 = 0.0359 | 985.713 | –
313.15 K, x1 = 0.0617 | 981.605 | –
313.15 K, x1 = 0.1009 | 975.714 | 2.669
313.15 K, x1 = 0.2017 | 957.808 | 5.071
313.15 K, x1 = 0.3033 | 940.237 | 6.593
313.15 K, x1 = 0.4051 | 924.379 | 6.58
313.15 K, x1 = 0.5077 | 911.114 | 5.885
313.15 K, x1 = 0.6099 | 899.803 | 4.784
313.15 K, x1 = 0.7652 | 886.233 | 3.467
313.15 K, x1 = 0.895 | 877.213 | 2.72
313.15 K, x1 = 1 | 870.686 | 2.238
318.15 K, x1 = 0.0121 | 986.678 | –
318.15 K, x1 = 0.0218 | 985.311 | –
318.15 K, x1 = 0.0359 | 983.206 | –
318.15 K, x1 = 0.0617 | 978.661 | –
318.15 K, x1 = 0.1009 | 972.197 | –
318.15 K, x1 = 0.2017 | 953.663 | –
318.15 K, x1 = 0.3033 | 935.946 | –
318.15 K, x1 = 0.4051 | 920.062 | –
318.15 K, x1 = 0.5077 | 906.806 | –
318.15 K, x1 = 0.6099 | 895.501 | –
318.15 K, x1 = 0.7652 | 881.923 | –
318.15 K, x1 = 0.895 | 872.876 | –
318.15 K, x1 = 1 | 866.316 | –
323.15 K, x1 = 0.0617 | 975.591 | –
323.15 K, x1 = 0.1009 | 968.595 | 1.957
323.15 K, x1 = 0.2017 | 949.451 | 3.487
323.15 K, x1 = 0.3033 | 931.598 | 4.435
323.15 K, x1 = 0.4051 | 915.685 | 4.433
323.15 K, x1 = 0.5077 | 902.436 | 4.044
323.15 K, x1 = 0.6099 | 891.144 | 3.393
323.15 K, x1 = 0.7652 | 877.562 | 2.573
323.15 K, x1 = 0.895 | 868.495 | 2.089
323.15 K, x1 = 1 | 861.902 | 1.756
328.15 K, x1 = 0.0617 | 972.399 | –
328.15 K, x1 = 0.1009 | 964.905 | –
328.15 K, x1 = 0.2017 | 945.194 | –
328.15 K, x1 = 0.3033 | 927.188 | –
328.15 K, x1 = 0.4051 | 911.247 | –
328.15 K, x1 = 0.5077 | 898.016 | –
328.15 K, x1 = 0.6099 | 886.733 | –
328.15 K, x1 = 0.7652 | 873.15 | –
328.15 K, x1 = 0.895 | 864.065 | –
328.15 K, x1 = 1 | 857.46 | –
333.15 K, x1 = 0.0617 | 969.09 | –
333.15 K, x1 = 0.1009 | 961.13 | 1.499
333.15 K, x1 = 0.2017 | 940.864 | 2.511
333.15 K, x1 = 0.3033 | 922.714 | 3.091
333.15 K, x1 = 0.4051 | 906.75 | 3.126
333.15 K, x1 = 0.5077 | 893.531 | 2.897
333.15 K, x1 = 0.6099 | 882.262 | 2.503
333.15 K, x1 = 0.7652 | 868.68 | 1.969
333.15 K, x1 = 0.895 | 859.595 | 1.641
333.15 K, x1 = 1 | 852.965 | 1.413
338.15 K, x1 = 0.0617 | 965.663 | –
338.15 K, x1 = 0.1009 | 957.253 | –
338.15 K, x1 = 0.2017 | 936.472 | –
338.15 K, x1 = 0.3033 | 918.174 | –
338.15 K, x1 = 0.4051 | 902.184 | –
338.15 K, x1 = 0.5077 | 888.98 | –
338.15 K, x1 = 0.6099 | 877.726 | –
338.15 K, x1 = 0.7652 | 864.16 | –
338.15 K, x1 = 0.895 | 855.072 | –
338.15 K, x1 = 1 | 848.423 | –
343.15 K, x1 = 0.0617 | 961.835 | –
343.15 K, x1 = 0.1009 | 953.308 | 1.186
343.15 K, x1 = 0.2017 | 932.014 | 1.896
343.15 K, x1 = 0.3033 | 913.564 | 2.27
343.15 K, x1 = 0.4051 | 897.541 | 2.302
343.15 K, x1 = 0.5077 | 884.364 | 2.152
343.15 K, x1 = 0.6099 | 873.127 | 1.909
343.15 K, x1 = 0.7652 | 859.582 | 1.551
343.15 K, x1 = 0.895 | 850.491 | 1.317
343.15 K, x1 = 1 | 843.844 | 1.156
348.15 K, x1 = 0.0617 | 957.228 | –
348.15 K, x1 = 0.1009 | 949.273 | –
348.15 K, x1 = 0.2017 | 927.488 | –
348.15 K, x1 = 0.3033 | 908.868 | –
348.15 K, x1 = 0.4051 | 892.846 | –
348.15 K, x1 = 0.5077 | 879.677 | –
348.15 K, x1 = 0.6099 | 868.45 | –
348.15 K, x1 = 0.7652 | 854.939 | –
348.15 K, x1 = 0.895 | 845.858 | –
348.15 K, x1 = 1 | 839.205 | –
353.15 K, x1 = 0.0617 | 952.666 | –
353.15 K, x1 = 0.1009 | 945.149 | 0.966
353.15 K, x1 = 0.2017 | 922.889 | 1.47
353.15 K, x1 = 0.3033 | 904.132 | 1.724
353.15 K, x1 = 0.4051 | 888.074 | 1.75
353.15 K, x1 = 0.5077 | 874.926 | 1.65
353.15 K, x1 = 0.6099 | 863.729 | 1.493
353.15 K, x1 = 0.7652 | 850.236 | 1.247
353.15 K, x1 = 0.895 | 841.163 | 1.078
353.15 K, x1 = 1 | 834.521 | 0.963
358.15 K, x1 = 0.0617 | 950.878 | –
358.15 K, x1 = 0.1009 | 940.935 | –
358.15 K, x1 = 0.2017 | 918.216 | –
358.15 K, x1 = 0.3033 | 899.314 | –
358.15 K, x1 = 0.4051 | 883.233 | –
358.15 K, x1 = 0.5077 | 870.101 | –
358.15 K, x1 = 0.6099 | 858.928 | –
358.15 K, x1 = 0.7652 | 845.484 | –
358.15 K, x1 = 0.895 | 836.414 | –
358.15 K, x1 = 1 | 829.779 | –
363.15 K, x1 = 0.0617 | 946.398 | –
363.15 K, x1 = 0.1009 | 936.638 | –
363.15 K, x1 = 0.2017 | 913.472 | –
363.15 K, x1 = 0.3033 | 894.425 | –
363.15 K, x1 = 0.4051 | 878.314 | –
363.15 K, x1 = 0.5077 | 865.197 | –
363.15 K, x1 = 0.6099 | 854.052 | –
363.15 K, x1 = 0.7652 | 840.646 | –
363.15 K, x1 = 0.895 | 831.596 | –
363.15 K, x1 = 1 | 824.969 | –

— the NIST ThermoML archive (doi:10.1016/j.jct.2004.11.016)
